Experimental data from patent US20250025439A1, “DERIVATIVES OF NIFUROXAZIDE FOR USE IN THE TREATMENT OF MITOCHONDRIAL DISORDERS AND NEURODEGENERATIVE DISEASES” (priority 2021, published 2025).

Legend:
[1] = system: iPSC-derived motor neurons; test: Caspase activity measurement (DEVDase) in iPSC-derived motor neurons; assay type: cell-based, human; conditions: glutamate 100 μM + NFX 0.5 μM
Description: iPSC clones were generated from human fibroblasts as previously described (Genin et al., Acta Neuropathol., 2019, 138, 123-145). Motor neurons were differentiated from iPSC using previously described and validated protocols with some modifications. Briefly, iPSC clones were detached by Accutase treatment to form small clusters. Cells were transferred in Neuronal basic medium (DMEM/F12 plus Neurobasal medium with N2 and B27 supplement without vitamin A) supplemented with 40 μM SB431542 (Tocris Bioscience), 0.2 μM LDN-193189 (Stemgent), 3 μM CHIR99021 (Tocris Bioscience), and 5 μM Y-27632 (Merck Millipore) to induce EB formation. From day 3 on, 0.1 μM retinoic acid (Sigma) and 500 nM SAG (Merck Millipore) were added to the neuronal basic medium and medium was changed every 2 days. From day 9 on, BDNF (10 ng/mL, Miltenyi Biotec) and GDNF (10 ng/ml, Miltenyi Biotec) and DAPT (20 μM, Tocris Bioscience) were added. On day 10, floating clusters were dissociated into single cells using 0.05% trypsin (Gibco™). […] Cells were treated either with 0.5 μM Staurosporine (Sigma) for 24 h or 50-100 μM glutamate (Sigma) for 48 h and caspase activation was analyzed by DEVDase activity measurement as previously described (Villa et al., 2017). […] Caspase activity was measured using a fluoroscan at 460 nm, and specific activity was expressed as the change in absorbance per minute per milligram protein.

[2] = molecular target: T1, ARF GTPase-activating protein GIT2 (Homo sapiens, UniProt Q14161); test: Affinity chromatography with NFX-beads and mass spectrometry; assay type: binding; conditions: spectral counts, NFX coupled beads vs beads alone, human fibroblast extracts
T1 construct: Protein extracts from human fibroblasts were incubated with magnetic beads; endogenous in cells; host or cells: human fibroblast lysate
T1 sequence (Q14161 1-759): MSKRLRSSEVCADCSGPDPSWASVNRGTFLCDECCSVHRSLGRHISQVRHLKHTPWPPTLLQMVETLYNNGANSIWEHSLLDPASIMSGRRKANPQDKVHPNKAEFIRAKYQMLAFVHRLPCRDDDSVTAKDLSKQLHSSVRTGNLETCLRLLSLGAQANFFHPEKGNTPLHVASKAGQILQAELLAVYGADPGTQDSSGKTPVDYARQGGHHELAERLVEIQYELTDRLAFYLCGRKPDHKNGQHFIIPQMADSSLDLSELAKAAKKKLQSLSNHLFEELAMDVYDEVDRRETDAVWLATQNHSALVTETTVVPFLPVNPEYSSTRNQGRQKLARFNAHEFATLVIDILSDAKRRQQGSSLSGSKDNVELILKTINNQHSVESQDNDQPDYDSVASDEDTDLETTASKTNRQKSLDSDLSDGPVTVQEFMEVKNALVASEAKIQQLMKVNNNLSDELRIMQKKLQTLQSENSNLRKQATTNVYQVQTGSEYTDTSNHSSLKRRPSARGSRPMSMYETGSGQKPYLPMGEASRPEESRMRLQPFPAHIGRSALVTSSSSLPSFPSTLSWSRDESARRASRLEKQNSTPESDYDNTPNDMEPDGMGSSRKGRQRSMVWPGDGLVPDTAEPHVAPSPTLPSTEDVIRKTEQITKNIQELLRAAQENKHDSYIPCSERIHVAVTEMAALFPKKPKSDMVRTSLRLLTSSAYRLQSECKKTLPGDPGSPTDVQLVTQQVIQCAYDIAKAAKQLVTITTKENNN

sensitivity to glutamate-induced caspase activation ([1]; CHCHD10^S59L/+ motor neurons): less sensitive
Fold change [2]: 433.33
Structure (SMILES): O=C(N/N=C/c1ccc([N+](=O)[O-])o1)c1ccc(O)cc1 [NFX, (E)-4-hydroxy-N′-((5-nitrofuran-2-yl)methylene)benzohydrazide]
effect on glutamate-induced caspase activation ([1]; control motor neurons): no effect
